Values after ≈ are worked out from the molar mass of the structure shown. Where a SMILES comes first, the peptide text is derived from it. [ ]: non-standard residue; d: D form. Aib = CC(C)(N)C(=O)O
Key:
[1] = target: T1, human glucagon receptor (GCGR) (Homo sapiens, UniProt P47871); assay: Agonist activity assay for GCGR (cAMP HTRF); format: cell-based; conditions: normalized by the activity of the native glucagon
T1 construct: expressed in transfected cells
Method: The activation of GCGR by related compounds will stimulate the formation of cyclic adenosine monophosphate (cAMP) in cells. Thus, the receptor activity can be monitored by cAMP production in proper cells expressing the receptor. […] The cells were passaged at least once for subsequent tests. Before testing, the cells were trypsinized, centrifuged, washed once, and resuspended in serum-free DMEM/F12 medium. The cell density was adjusted, and the cells were plated in a 96-well plate at a density of 2,500 cells/5 μL/well. […] The mixture was mixed well by moderate vibration, and incubated for 1 hour at room temperature away from light.

[2] = Chemical stability in phosphate buffer (UPLC purity); format: physicochemical; conditions: phosphate buffer pH 7.4, 1 mg/mL; for Purity Day 0: day 0 (normalization)
Method: The compound purity was calculated by the percentage area of the main peak in the chromatograms relative to the total area of all integrated peaks, normalized by the purity of the sample on day 0 for the purity.

[3] = Maximum solubility in phosphate buffer pH 7.4; format: physicochemical; conditions: phosphate buffer pH 7.4, room temperature
human GLP-1R = target: T2, human GLP-1R (Homo sapiens, UniProt P43220); assay: Agonist activity assay for GLP-1R (cAMP HTRF); format: cell-based
T2 construct: expressed in transfected cells
Method: (§1) The activation of GCGR by related compounds will stimulate the formation of cyclic adenosine monophosphate (cAMP) in cells. Thus, the receptor activity can be monitored by cAMP production in proper cells expressing the receptor.
(§2) Agonist activity assay for GCGR: Cryopreserved stable CHO-K1/GCGR/CRE-Luc cells were taken from a liquid nitrogen tank, thawed in a 37° C. water bath, resuspended in DMEM/F12 medium (Sigma Cat #D8437), centrifuged, and seeded into T75 culture flasks. The cells were passaged at least once for subsequent tests. Before testing, the cells were trypsinized, centrifuged, washed once, and resuspended in serum-free DMEM/F12 medium. The cell density was adjusted, and the cells were plated in a 96-well plate at a density of 2,500 cells/5 μL/well. A 1×buffer solution in Cisbio-cAMP-Gs Dynamic kit was prepared, and IBMX was added at a final concentration of 0.5 mM. 5 μL of polypeptide serially diluted by buffer was added into each well, and the plate was shaken gently for mixing and incubated for 30 minutes at 37° C. cAMP-d2 and Anti-cAMP-Eu^3+-Cryptate were 20-fold diluted with cAMP Lysis and detection buffer respectively and mixed well. 5 μL of diluted cAMP-d2 solution and 5 μL of diluted Anti-cAMP-Eu^3+-Cryptate solution were sequentially added into each well. The mixture was mixed well by moderate vibration, and incubated for 1 hour at room temperature away from light.
Agonist activity assay for GLP-1R: The method differed from the method described above for the agonist activity assay for GCGR in that a stable CHO-GLP-1R cell line was used.

human GIPR = target: T3, human GIPR (Homo sapiens, UniProt P48546); assay: Agonist activity assay for GIPR (cAMP HTRF); format: cell-based; conditions: for EC50: CHO-K1/GIPR cell line, cAMP
T3 construct: expressed in transfected cells
T3 sequence (P48546 22-466): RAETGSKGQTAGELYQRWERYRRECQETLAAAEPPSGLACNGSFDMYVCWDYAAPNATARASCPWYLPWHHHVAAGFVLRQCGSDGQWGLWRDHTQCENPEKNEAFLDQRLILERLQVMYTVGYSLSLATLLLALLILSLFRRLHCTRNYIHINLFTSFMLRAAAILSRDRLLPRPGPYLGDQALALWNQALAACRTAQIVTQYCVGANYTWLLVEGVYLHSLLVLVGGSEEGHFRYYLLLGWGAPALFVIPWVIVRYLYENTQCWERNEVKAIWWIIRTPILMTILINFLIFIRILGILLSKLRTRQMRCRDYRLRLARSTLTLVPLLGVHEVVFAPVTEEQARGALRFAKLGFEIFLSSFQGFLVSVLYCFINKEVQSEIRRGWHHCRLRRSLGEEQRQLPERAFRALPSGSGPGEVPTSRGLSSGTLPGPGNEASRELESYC
Method: as §1, §2
Agonist activity assay for GIPR: The method differed from the method described above for the agonist activity assay for GCGR in that a stable CHO-K1/GIPR cell line was used, and the cell density was 3,000 cells/5 μL/well.

[4] = target: human glucose-dependent insulinotropic polypeptide receptor (GIPR) (human) (UniProt P48546); assay: cell-based or functional assay

T2 sequence (P43220 24-463): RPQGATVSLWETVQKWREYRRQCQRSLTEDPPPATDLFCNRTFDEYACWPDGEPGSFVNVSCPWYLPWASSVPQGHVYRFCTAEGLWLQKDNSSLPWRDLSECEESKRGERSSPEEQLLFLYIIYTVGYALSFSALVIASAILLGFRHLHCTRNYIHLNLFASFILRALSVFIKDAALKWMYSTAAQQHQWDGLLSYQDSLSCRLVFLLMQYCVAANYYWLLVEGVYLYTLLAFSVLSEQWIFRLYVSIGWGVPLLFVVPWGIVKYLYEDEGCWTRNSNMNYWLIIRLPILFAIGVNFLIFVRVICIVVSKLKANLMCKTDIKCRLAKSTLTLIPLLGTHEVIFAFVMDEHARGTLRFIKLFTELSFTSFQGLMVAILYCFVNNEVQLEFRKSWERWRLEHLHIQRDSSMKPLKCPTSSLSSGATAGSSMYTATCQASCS
T1 sequence (P47871 26-477): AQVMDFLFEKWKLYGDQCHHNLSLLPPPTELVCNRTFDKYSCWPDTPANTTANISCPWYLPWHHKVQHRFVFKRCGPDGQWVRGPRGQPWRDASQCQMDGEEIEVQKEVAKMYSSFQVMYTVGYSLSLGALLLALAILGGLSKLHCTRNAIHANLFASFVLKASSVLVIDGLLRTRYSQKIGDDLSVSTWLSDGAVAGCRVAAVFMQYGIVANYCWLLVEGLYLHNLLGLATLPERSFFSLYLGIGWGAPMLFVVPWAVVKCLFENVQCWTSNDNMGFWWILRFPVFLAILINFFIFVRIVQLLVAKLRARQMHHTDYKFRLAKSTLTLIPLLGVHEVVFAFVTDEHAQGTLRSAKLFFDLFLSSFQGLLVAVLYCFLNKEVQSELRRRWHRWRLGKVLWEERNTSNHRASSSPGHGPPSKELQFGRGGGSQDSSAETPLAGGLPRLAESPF

Molecule | Relative activity [1] | Purity Day 7 ([2]; 4° C.) | Purity Day 14 ([2]; 4° C.) | Purity Day 21 ([2]; 4° C.) | Purity Day 28 ([2]; 4° C.) | Purity Day 7 ([2]; 25° C.) | Purity Day 14 ([2]; 25° C.) | Purity Day 21 ([2]; 25° C.) | Purity Day 28 ([2]; 25° C.) | Purity Day 0 [2] | solubility at 5 min [3] | GLP-1R % Activity relative to native GLP-1 (human GLP-1R) | EC50 (human GIPR) | GIPR % Activity relative to native GIP (human GIPR) | GIPR % Activity relative to native GIP, cAMP HTRF [4] | GIPR EC50 (nM), cAMP HTRF in CHO-K1/GIPR cells [4]
CC(C)C[C@H](NC(=O)[C@H](Cc1c[nH]c2ccccc12)NC(=O)[C@H](CCC(N)=O)NC(=O)[C@@H](NC(=O)[C@H](Cc1ccccc1)NC(=O)[C@H](CCC(=O)O)NC(=O)[C@H](CCC(N)=O)NC(=O)[C@H](C)NC(=O)[C@H](CCCNC(=N)N)NC(=O)C(C)(C)NC(=O)[C@@H](NC(=O)[C@H](CC(=O)O)NC(=O)[C@H](CC(C)C)NC(=O)[C@H](Cc1ccc(O)cc1)NC(=O)[C@H](CCCCN)NC(=O)[C@H](CO)NC(=O)[C@H](Cc1ccc(O)cc1)NC(=O)[C@H](CC(=O)O)NC(=O)[C@H](CO)NC(=O)[C@@H](NC(=O)[C@H](Cc1ccccc1)NC(=O)[C@@H](NC(=O)CNC(=O)[C@H](CCC(N)=O)NC(=O)[C@H](CO)NC(=O)[C@@H](N)Cc1c[nH]cn1)[C@@H](C)O)[C@@H](C)O)[C@@H](C)O)C(C)C)C(=O)N[C@@H](CCC(=O)O)C(=O)N[C@@H](CO)C(=O)N[C@H](C(=O)O)[C@@H](C)O [Compound 39] (H-HSQGTFTSDYSKYLDT[Aib]RAQEFVQWLEST-OH) | 268% | 97.24% | 97.45% | 95.71% | 94.88% | 94.64% | 93.86% | 91.35% | 91.85% | 100.00% | > 4790 µg/mL | 0.212% | > 100 nM | <0.0700% |  | 
CC(C)C[C@H](NC(=O)[C@H](Cc1c[nH]c2ccccc12)NC(=O)[C@H](CCC(N)=O)NC(=O)[C@@H](NC(=O)[C@H](Cc1ccccc1)NC(=O)[C@H](CCC(=O)O)NC(=O)[C@H](CCC(N)=O)NC(=O)[C@H](C)NC(=O)[C@H](CCCNC(=N)N)NC(=O)C(C)(C)NC(=O)[C@@H](NC(=O)[C@H](CC(=O)O)NC(=O)[C@H](CC(C)C)NC(=O)[C@H](Cc1ccc(O)cc1)NC(=O)[C@H](CCCCN)NC(=O)[C@H](CO)NC(=O)[C@H](Cc1ccc(O)cc1)NC(=O)[C@H](CC(=O)O)NC(=O)[C@H](CO)NC(=O)[C@@H](NC(=O)[C@H](Cc1ccccc1)NC(=O)[C@@H](NC(=O)CNC(=O)[C@H](CCC(N)=O)NC(=O)[C@H](CO)NC(=O)[C@@H](N)Cc1c[nH]cn1)[C@@H](C)O)[C@@H](C)O)C(C)C)C(C)C)C(=O)N[C@@H](CCC(=O)O)C(=O)N[C@@H](CO)C(=O)N[C@H](C(=O)O)[C@@H](C)O [Compound 41] (H-HSQGTFTSDYSKYLDV[Aib]RAQEFVQWLEST-OH) | 333% | 98.77% | 93.35% | 89.45% | 89.12% | 82.25% | 68.13% | 49.04% | 33.47% | 100.00% | 2560 µg/mL (≈ 751 µM) | 0.231% | > 100 nM | <0.0700% |  | 
human GIP (1-42) (from UniProt P09681 52-93) (ligand) |  |  |  |  |  |  |  |  |  |  |  |  |  |  | 100% | 0.0652 nM
